The results in this text go back to ChEMBL document CHEMBL4033698, “One-pot synthesis and biological evaluation of N-(aminosulfonyl)-4-podophyllotoxin carbamates as potential anticancer agents” (Bioorg Med Chem Lett, 2017).

Activity calls are given as the source filed them. The calls are words filed in the database; no cut-off is given here.

Assay [1] has as its system HeLa. The experiment in a line: Inhibition of tubulin polymerization in human HeLa cells assessed as reduction in polymerized tubulin expression at 2 uM after 24 hrs by chemiluminescence assay. Format: cell-based.
Another assay concerns HCT-8. The experiment in a line: Cytotoxicity against human HCT8 cells after 48 hrs by MTT assay. Format: functional, cell-based. The note with it: HCT-8, 48 h.
The test system of a further assay is WI-38. The experiment in a line: Cytotoxicity against human WI38 cells after 48 hrs by MTT assay. The note with it: WI-38, 48 h. Format: cell-based.
In another assay the test system is HepG2. The experiment in a line: Cytotoxicity against human HepG2 cells after 48 hrs by MTT assay. Format: functional, cell-based. The note with it: HepG2, 48 h.
For assay [2], the system named is HeLa. The experiment in a line: Cytotoxicity against human HeLa cells after 48 hrs by MTT assay. The format is functional, cell-based.
For a further assay, the system named is A549. As to the kind of experiment: Cytotoxicity against human A549 cells after 48 hrs by MTT assay. The format is functional, cell-based. To be noted: A549, 48 h.
Assay [3] has as its system HeLa. The experiment in a line: Induction of microtubule disruption in human HeLa cells assessed as nuclear fragmentation after 6 hrs by DAPI staining based immunofluorescence microscopic analysis. The format is cell-based.
Assay [4] deals with HeLa. The experiment in a line: Induction of microtubule disruption in human HeLa cells assessed as dense microtubule after 6 hrs by DAPI staining based immunofluorescence microscopic analysis. Format: cell-based.
For assay [5], the system named is HeLa. The experiment in a line: Induction of apoptosis in human HeLa cells assessed as upregulation of p53 expression by Western blot analysis. Format: functional, cell-based.
The test system of assay [6] is HeLa. The experiment in a line: Induction of apoptosis in human HeLa cells assessed as increase in intracellular reactive oxygen species level after 24 hrs by DCFH-DA staining based laser confocal microscopic analysis. The format is functional, cell-based.
The subject of assay [7] is HeLa. The experiment in a line: Inhibition of tubulin polymerization in human HeLa cells assessed as reduction in polymerized tubulin expression at 0.5 uM after 24 hrs by chemiluminescence assay. Format: cell-based.
Assay [8] has as its system HeLa. As to the kind of experiment: Induction of apoptosis in human HeLa cells assessed as morphological changes at 0.1 to 1 uM after 24 hrs by Hoechst 33258 staining based fluorescence microscopic analysis. Format: functional, cell-based.
Assay [9] addresses Cyclin-dependent kinase 1 (Homo sapiens) (UniProt P06493). As to the kind of experiment: Reduction in phosphorylated CDC2 level in human HeLa cells after 24 hrs by Western blot analysis. The format is cell-based.
The subject of assay [10] is HeLa. As to the kind of experiment: Upregulation of CDC2 expression in human HeLa cells after 24 hrs by Western blot analysis. The format is functional, cell-based.
The subject of assay [11] is HeLa. As to the kind of experiment: Upregulation of cyclin B1 expression in human HeLa cells after 24 hrs by Western blot analysis. The format is functional, cell-based.
Assay [12] concerns HeLa. As to the kind of experiment: Induction of microtubule disruption in human HeLa cells assessed as cell shrinkage after 6 hrs by DAPI staining based immunofluorescence microscopic analysis.
Assay [13] has as its system HeLa. As to the kind of experiment: Cell cycel arrest in human HeLa cells assessed as decrease in accumulation at G1 phase after 24 hrs by propidium iodide staining based assay. Format: functional.
In assay [14] the test system is HeLa. As to the kind of experiment: Induction of microtubule disruption in human HeLa cells assessed as nuclear condensation after 6 hrs by DAPI staining based immunofluorescence microscopic analysis. The format is cell-based.
The test system of assay [15] is HeLa. The experiment in a line: Induction of apoptosis in human HeLa cells assessed as nuclear fragmentation at 0.1 to 1 uM after 24 hrs by Hoechst 33258 staining based fluorescence microscopic analysis. Format: functional, cell-based.
Assay [16] concerns HeLa. The experiment in a line: Induction of microtubule disruption in human HeLa cells assessed as short microtubule after 6 hrs by DAPI staining based immunofluorescence microscopic analysis. Format: cell-based.
The test system of assay [17] is HeLa. The experiment in a line: Cell cycel arrest in human HeLa cells assessed as increase in accumulation at G2/M phase after 24 hrs by propidium iodide staining based assay. Format: functional.
Assay [18] concerns HeLa. The experiment in a line: Induction of microtubule disruption in human HeLa cells assessed as round microtubule after 6 hrs by DAPI staining based immunofluorescence microscopic analysis. Format: cell-based.
Assay [19] deals with HeLa. As to the kind of experiment: Induction of microtubule disruption in human HeLa cells assessed as round microtubule at 1 uM after 6 hrs by DAPI staining based immunofluorescence microscopic analysis. The format is cell-based.
The subject of assay [20] is HeLa. The experiment in a line: Induction of microtubule disruption in human HeLa cells assessed as dense microtubule at 1 uM after 6 hrs by DAPI staining based immunofluorescence microscopic analysis. Format: cell-based.
Assay [21] has as its system HeLa. As to the kind of experiment: Induction of microtubule disruption in human HeLa cells assessed as short microtubule at 1 uM after 6 hrs by DAPI staining based immunofluorescence microscopic analysis. The format is cell-based.

Chain of Cyclin-dependent kinase 1 (Homo sapiens) (P06493 whole entry, looked up): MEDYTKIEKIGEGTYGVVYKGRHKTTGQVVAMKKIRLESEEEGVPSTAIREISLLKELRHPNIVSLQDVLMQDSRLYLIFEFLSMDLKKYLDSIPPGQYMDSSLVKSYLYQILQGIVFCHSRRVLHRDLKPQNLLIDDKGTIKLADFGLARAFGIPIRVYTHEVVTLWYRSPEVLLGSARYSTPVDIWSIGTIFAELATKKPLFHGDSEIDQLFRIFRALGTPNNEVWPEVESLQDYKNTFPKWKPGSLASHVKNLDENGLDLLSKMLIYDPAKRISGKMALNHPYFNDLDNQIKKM

Take `CC(=O)O[C@H]1C(=O)[C@@]2(C)[C@H]([C@H](OC(=O)c3ccccc3)[C@]3(O)C[C@H](OC(=O)[C@H](O)[C@@H](NC(=O)c4ccccc4)c4ccccc4)C(C)=C1C3(C)C)[C@]1(OC(C)=O)CO[C@@H]1C[C@@H]2O`: the inhibition result with HeLa [1] was “inactive”.

On to `COc1cc([C@@H]2c3cc4c(cc3[C@@H](O[C@@H]3O[C@@H]5CO[C@@H](C)O[C@H]5[C@H](O)[C@H]3O)[C@H]3COC(=O)[C@H]23)OCO4)cc(OC)c1O` [ETOPOSIDE], for which the IC50 in the assay on HCT-8 came to 26.3 µM; in the assay with WI-38, 46.9 µM; in the assay on HepG2, 13.4 µM; in the assay with HeLa [2], 24.9 µM.

Regarding `COc1cc([C@@H]2c3cc4c(cc3[C@H](OC(=O)NS(=O)(=O)NC3CC3)[C@H]3COC(=O)[C@H]23)OCO4)cc(OC)c1OC`, the IC50 worked out at 45 µM in the assay with HCT-8; 65.3 µM in the assay on WI-38; 8.8 µM in the assay on HepG2; 4.3 µM in the assay with A549; 3.9 µM with HeLa [2].

As to `COc1cc([C@@H]2c3cc4c(cc3[C@H](OC(=O)NS(=O)(=O)NC3CCCCC3)[C@H]3COC(=O)[C@H]23)OCO4)cc(OC)c1OC`, the half-inhibitory concentration (IC50) in the assay on HCT-8 came to 20.1 µM; with WI-38 it was 78.5 µM; in the assay on HepG2, 3.7 µM; with A549, 2.6 µM; in the assay on HeLa [2] it was 4.6 µM.

With `COc1cc([C@@H]2c3cc4c(cc3[C@H](OC(=O)NS(=O)(=O)N3CCN(c5ccc(F)cc5)CC3)[C@H]3COC(=O)[C@H]23)OCO4)cc(OC)c1OC`, the results for the IC50 in the assay on WI-38, with A549 and in the assay with HeLa [2] were 44.3 µM, 12.2 µM and 7.6 µM, respectively.

In the case of `COc1cc([C@@H]2c3cc4c(cc3[C@H](OC(=O)NS(=O)(=O)NC3CCN(C)CC3)[C@H]3COC(=O)[C@H]23)OCO4)cc(OC)c1OC`, the IC50 with HCT-8 stood at 96 µM; with WI-38, 68.7 µM; with HepG2, 15.6 µM; in the assay with A549, 3.3 µM; in the assay on HeLa [2], 4.1 µM.

Turning to `COc1cc([C@@H]2c3cc4c(cc3[C@H](OC(=O)NS(=O)(=O)N3CCN(C)CC3)[C@H]3COC(=O)[C@H]23)OCO4)cc(OC)c1OC`, the IC50 is over 100 µM with HCT-8; 86.5 µM in the assay on WI-38; 1.5 µM in the assay on HepG2; 5.9 µM in the assay on A549; 0.4 µM in the assay on HeLa [2].

As for `CCCNS(=O)(=O)NC(=O)O[C@H]1c2cc3c(cc2[C@@H](c2cc(OC)c(OC)c(OC)c2)[C@H]2C(=O)OC[C@@H]21)OCO3`, the IC50 worked out at 23.2 µM in the assay with HCT-8; 63.3 µM in the assay on WI-38; 2.8 µM with HepG2; 9 µM in the assay on A549; 1.9 µM with HeLa [2].

With `COc1cc([C@@H]2c3cc4c(cc3[C@H](OC(=O)NS(=O)(=O)N3CCOCC3)[C@H]3COC(=O)[C@H]23)OCO4)cc(OC)c1OC`, the Activity entry (in the assay with HeLa [3]; in the assay with HeLa [4]; with HeLa [5]; in the assay on HeLa [6]; in [9]; in the assay with HeLa [10]) was “Dose-dependent effect” each time. The Activity entry with HeLa [11], in the assay with HeLa [12], with HeLa [13], in the assay with HeLa [14], in the assay with HeLa [16] and in the assay with HeLa [17] was “Dose-dependent effect” in each case. In the assay on HeLa [18], the Activity entry is “Dose-dependent effect”. For the same compound, the IC50 in the assay with HCT-8 was found to be 16.5 µM; with WI-38 it was 109 µM; with HepG2, 0.7 µM; in the assay with A549, 1.5 µM; in the assay on HeLa [2], 0.5 µM. The inhibition result in the assay on HeLa [7] and in the assay on HeLa [1] was “Active” in each case. For the same compound, the result in the assay with HeLa [8] and in the assay with HeLa [15] was Active.

As for `COc1cc2c(c(OC)c1OC)-c1ccc(OC)c(=O)cc1[C@@H](NC(C)=O)CC2`, the outcome in the assay with HeLa [19], in the assay on HeLa [20] and with HeLa [21] was Active.

For `COc1cc([C@@H]2c3cc4c(cc3[C@H](OC(=O)NS(=O)(=O)N3CCN(c5ccc([N+](=O)[O-])cc5)CC3)[C@H]3COC(=O)[C@H]23)OCO4)cc(OC)c1OC`, the IC50 in the assay with HCT-8 was over 100 µM; in the assay on WI-38 it was 77.2 µM; with HepG2, 6 µM; with A549, 13.7 µM; with HeLa [2], 35.6 µM.

In the case of `COc1cc([C@@H]2c3cc4c(cc3[C@H](OC(=O)NS(=O)(=O)N3CCN(C5CCCC5)CC3)[C@H]3COC(=O)[C@H]23)OCO4)cc(OC)c1OC`, the results for the IC50 with WI-38, in the assay on A549 and in the assay with HeLa [2] were 47.9 µM, 9.8 µM and 57.6 µM, respectively.
